Experimental data taken from patent US9144557B2, “Hematopoietic growth factor mimetic small molecule compounds and their uses” (Ligand Pharmaceuticals Inc., priority 2009, dated 2015).

Test system: UT7/EPO Cell line
Test: Cell Proliferation Assay (UT7/EPO, ViaLight Plus)
Type: cell-based, human
Conditions: proliferative effect; compounds at 10 uM; UT7/EPO cells starved of EPO overnight; 72 hours at 37° C.; ViaLight Plus kit
Description: The primary testing for the examplfied compounds was performed in UT7/EPO Cell line. UT7/EPO is human leukemia cell line, obtained from Dr. Norio Komatsu (Blood, Vol 82 (2), pp 456-464, 1993). These cells express endogenous EPO receptor and are dependant upon EPO for growth and proliferation. Briefly, the cells were starved of EPO overnight and plated in 96 or 384 well plates. The compounds were added to the cells at 10 uM concentration. The plates were then incubated at 37° C. for 72 hours. The proliferative effect of the compounds was measured by a commercially available kit from Lonza (ViaLight Plus).

Row | Compound | Activity (%)
1 | Nc1ccc(-n2ncc3cc(NC(=O)c4ccc(N5CCOCC5)cc4)ccc32)cc1 [Compound 381, N-(1-(4-Aminophenyl)-1H-indazol-5-yl)-4-morpholinobenzamide] | 15%
2 | CN(C)c1ccc(C(=O)Nc2ccc(-n3ncc4cc(NC(=O)C5CC5)ccc43)cc2)cc1 [Compound 384, N-(4-(5-(cyclopropanecarboxamido)-1H-indazol-1-yl)phenyl)-4-(dimethylamino)benzamide] | 11%
3 | N#Cc1ccc(-n2ncc3cc(NC(=O)c4ccc(N5CCC(O)CC5)cc4)ccc32)cc1 [Compound 404, N-(1-(4-Cyanophenyl)-1H-indazol-5-yl)-4-(4-hydroxypiperidino)benzamide] | 14%
4 | CN(C)c1ccc(C(=O)Nc2ccc(Sc3ccc(NC(=O)c4ccc(N(C)C)cc4)cc3)cc2)cc1 [Compound 408, N,N′-(4,4′-Thiobis(4,1-phenylene))bis(4-(dimethylamino)benzamide)] | 13%
5 | O=C(Nc1ccc2[nH]c(-c3ccc(N4CCC5(CC4)OCCO5)cc3)nc2c1)c1ccc(N2CCOCC2)cc1 [Compound 413, N-(2-(4-(1,4-Dioxa-8-azaspiro[4,5]decan-8-yl)phenyl)-1H-benzimidazol-5-yl)-4-morpholinobenzamide] | 19%
6 | O=C(Nc1ccc2[nH]c(-c3ccc(N4CCOCC4)s3)nc2c1)c1ccc(N2CCOCC2)cc1 [Compound 418, N-(2-(2-Morpholinothien-5-yl)-1H-benzimidazol-5-yl)-4-morpholinobenzamide] | 11%
7 | CN1CCN(c2ccc(-c3nc4cc(NC(=O)c5ccc(N6CCOCC6)cc5)ccc4[nH]3)cc2)CC1 [Compound 423, N-(2-(4-(4-Methylpiperazino)phenyl)-1H-benzimidazol-5-yl)-4-morpholinobenzamide] | 15%
8 | O=C(Nc1ccc2[nH]c(-c3ccc(N4CCOCC4)cc3)nc2c1)c1ccccc1O [Compound 427, N-(2-(4-Morpholinophenyl)-1H-benzimidazol-5-yl)-2-hydroxybenzamide] | 15%
9 | O=C(Nc1ccc2[nH]c(-c3ccc(N4CCOCC4)cc3)nc2c1)C(=O)Nc1ccc2nc(-c3ccc(N4CCOCC4)cc3)[nH]c2c1 [Compound 434, N,N′-bis-(2-(4-Morpholinophenyl)-1H-benzimidazol-5-yl)oxalamide] | 15%
10 | COc1cccc(Nc2nc3cc(NC(=O)c4ccc5[nH]c(-c6ccc(N(C)C)cc6)nc5c4)ccc3[nH]2)c1 [Compound 439, N-(2-(3-Methoxyphenyl)amino-1H-benzimidazol-5-yl)-2-(4-dimethylaminophenyl)-1H-benzimidazole-5-carbamide] | 18%
11 | COc1ccc(-c2nc3cc(NC(=O)c4ccc(NC(=O)c5ccc(N(C)C)cc5)cc4)ccc3[nH]2)cc1 [Compound 444, 4-(dimethylamino)-N-(4-((2-(4-methoxyphenyl)-1H-benzo[d]imidazol-5-yl)carbamoyl)phenyl)benzamide] | 19%
12 | CS(=O)(=O)Nc1ccc2[nH]c(-c3ccc(C(=O)Nc4ccc(N5CCOCC5)cc4)cc3)nc2c1 [Compound 449] | 16%
13 | CC(=O)Nc1ccc2[nH]c(-c3ccc(C(=O)Nc4ccc(N5CCOCC5)cc4)cc3)nc2c1 [Compound 454, 4-(5-Acetamino-1H-benzimidazol-2-yl)-N-(4-morpholinophenyl)benzamide] | 16%
14 | O=C(Nc1ccc(N2CCOCC2)cc1)c1ccc(-c2nc3ccccc3[nH]2)cc1 [Compound 458, 4-(1H-Benzimidazol-2-yl)-N-(4-morpholinophenyl)benzamide] | 10%
15 | O=C(CNC(=O)c1ccc(-c2ccc(C(=O)NCC(=O)Nc3ccc(N4CCOCC4)cc3)cc2)cc1)Nc1ccc(N2CCOCC2)cc1 [Compound 465, N,N′-bis(2-(4-Morpholinophenylamino)-2-oxoethyl)biphenyl-4,4′-dicarboxamide] | 18%
16 | COc1ccc(-c2cc(NC(=O)c3ccc(C(=O)Nc4cc(-c5ccc(OC)cc5)[nH]n4)cc3)n[nH]2)cc1 [Compound 473, N,N′-bis(5-(4-Methoxyphenyl)-1H-pyrazol-3-yl)terephthalamide] | 11%
17 | O=C(Nc1ccc2[nH]c(-c3ccc(-c4ccccn4)cc3)nc2c1)c1ccccc1 [Compound 479, N-(2-(4-(Pyridin-2-yl)phenyl)-1H-benzimidazol-5-yl)benzamide] | 15%
18 | CCNc1ccc(C(=O)c2ccc(NC(=O)c3ccc(N4CCOCC4)cc3)cc2)cc1 [Compound 484, N-(4-(4-Ethylaminobenzoyl)phenyl)-4-morpholinobenzamide] | 16%
19 | O=C(Nc1ccc(C(=O)c2ccc(NC(=O)c3ccsc3)cc2)cc1)c1ccc(N2CCOCC2)cc1 [Compound 490, N-(4-(4-(3-Thienylcarboxamido)benzoyl)phenyl)-4-morpholinobenzamide] | 15%
20 | Cc1cc(C(=O)Nc2ccc(C(=O)c3ccc(NC(=O)c4ccc(N5CCOCC5)cc4)cc3)cc2)[nH]n1 [Compound 500, 3-Methyl-N-(4-(4-(4-morpholinobenzamido)benzoyl)phenyl)-1H-pyrazole-5-carboxamide] | 19%
21 | O=C(Nc1ccc2c(cnn2-c2ccc(NC(=O)c3ccc4cc[nH]c4c3)cc2)c1)c1ccc(N2CCC(O)CC2)cc1 [Compound 510, N-(4-(5-(4-(4-Hydroxypiperidin-1-yl)benzamido)-1H-indazol-1-yl)phenyl)-1H-indole-6-carboxamide] | 17%
22 | O=C(Nc1ccc2c(cnn2-c2ccc(NCC3CC3)cc2)c1)c1ccc(N2CCOCC2)cc1 [Compound 530] | 11%
23 | O=C(Nc1ccc2nn(-c3ccc([N+](=O)[O-])cc3)cc2c1)c1ccc(N2CCOCC2)cc1 [Compound 540, 4-Morpholino-N-(2-(4-nitrophenyl)-2H-indazol-5-yl)benzamide] | 17%
24 | CN1CCN(C(=O)Nc2ccc(-n3ncc4cc(NC(=O)c5ccc(N6CCOCC6)cc5)ccc43)cc2)CC1 [Compound 550, 4-Methyl-N-(4-(5-(4-morpholinobenzamido)-1H-indazol-1-yl)phenyl)piperazine-1-carboxamide] | 9%
25 | O=C(Nc1ccc2c(c1)ncn2-c1ccc(NC(=O)C2CC2)cc1)c1ccc(N2CCC(O)CC2)cc1 [Compound 560, N-(4-(5-(4-(4-Hydroxypiperidin-1-yl)benzamido)-1H-benzimidazol-1-yl)phenyl)cyclopropylcarboxamide] | 14%
26 | O=C(Nc1ccc(Nc2ccc(NC(=O)c3cccc(O)c3)cc2)cc1)c1cccc(O)c1 [Compound 570, N,N′-(4,4′-Azanediylbis(4,1-phenylene))bis(3-hydroxybenzamide)] | 11%
27 | Nc1ccc(C(=O)Nc2ccc(Nc3ccc(NC(=O)c4ccc(N)cc4)cc3)cc2)cc1 [Compound 580, N,N′-(4,4′-Azanediylbis(4,1-phenylene))bis(4-aminobenzamide)] | 16%
